The results in this text go back to patent US20140357688A1, “METHOD FOR INHIBITING EZH2 EXPRESSION IN BREAST CANCER CELLS” (Yung Shin Pharm. Ind. Co., Ltd., priority 2013, published 2014).

What all share (format): cell-based, human
Experiment [1] has as its system MDA-MB-468 cells. Nature of the experiment: Morphological analysis of apoptosis by fluorescent staining (FDA/PI). As to conditions: 3 μM YC-1, after 6 h-treatment. The method, then:
(A) Cells were treated with indicated concentration of YC-1 for 6, 24, and 48 h. Cell viability was determined by MTT method. (B) MDA-MB-468 cells were treated with 3 μM YC-1 for 0, 6, and 12 h, and then stained with fluorescence diacetate (FDA) and propidium iodide (PI). Cell morphology was assessed by fluorescence microscopy with magnification ×20 (upper 3 rows) or ×40 (lowest row). (C) MDA-MB-468 cells were treated with 3 μM YC-1 for 24 h, cells were lysed and subjected to western blot analysis described in Materials and Methods. β-actin is a loading control. Blots were representative of results from three independent experiments. (D) Cells were treated with vehicle (DMSO, as control) or 3 μM YC-1 for 6 h. The cell cycles were analyzed by flow cytometry. (E) Cells were treated with indicated concentration of YC-1 and then performed with clonogenic assay.
Vital and apoptotic cells were observed under staining with fluorescein diacetate (2 mg/ml) and propidium iodide (4 mg/ml) for 10 min. Cells were visualized and recorded on a LeicaDC300 microscope with digital camera.

The test system of experiment [2] is ERK. Nature of the experiment: Western blot of ERK phosphorylation in MDA-MB-468 cells. As to conditions: 3 μM YC-1; beginning at 2 h, maximal at 6 h. The method, then:
(A) Cells were pretreated with KT5720 (3 μM), KT5823 (3 μM), NS2028 (30 μM), or ODQ (30 μM) and then stimulated with YC-1 (3 μM) for 6 h. Cells were collected for measurement of protein expression (left) or cell viability (middle). After 3 days of PKA knockdown, cells were induced with 3 μM YC-1 for 4 h. Cells were harvested and analyzed using western blotting (right). The levels of protein expression were quantitated and shown under blots. […] Cells were collected and analyzed protein expression (left) and cells viability (middle). p44/42 MAPK knockdown cells were treated with 3 μM YC-1 for 4 h and then detected protein expression (left). (C) Cells were treated with 3 μM YC-1 for indicated time. Cells were harvested for detection of protein phosphorylated activation. […] Six hours later, cells were harvested for EZH2 ubiquitination assay. (E) Cells were induced by 3 μM YC-1 for 6 h in the presence of PD98059 or KT5720. Cells were collected for the determination of ERK phosphorylation. Cells were lysed in PBS containing proteinase inhibitor and phosphatase inhibitors and sonication. Protein concentration was measured using the Bio-Rad protein assay kit (Bio-Rad Laboratories, Hercules, Calif., USA). […] The band intensities were analyzed and quantified by the Multi Gauge software (Fuji Photo Film).
For orientation: In western blotting, separated proteins are transferred to a membrane and probed.

The subject of experiment [3] is Src, Raf-1, and MEK. Nature of the experiment: Western blot of Src, Raf-1 and MEK activation. Particulars: 3 μM YC-1. The method, then:
(A) Cells were pretreated with DMSO (as control), Bay-43-9006 (Bay, 10 μM), farnyesyl thiosalicylic acid (FTS, 10 μM), Src inhibitor I (SrcI, 10 μM), and genistein (Gen, 10 μM), then followed by YC-1 (3 μM) incubation for 6 h. Cells were harvested and lysed for western blot analysis (left, right) and cell viability (middle). The levels of protein expression were quantitated and shown under blots. (B) MDA-MB-468 cells were transfected with shRNA of Raf-1 or Src. After stimulation of 3 μM YC-1 for 4 h, cell protein was subjected to western blot analysis. (C) Cells were incubated with 3 μM YC-1 for indicated time and then lysed for detection of Src, Raf-1, and MEK activation by using specific anti-phosphorylated antibodies. (D) Cells were treated with 3 μM YC-1 for indicated time. Cells were lysed and detected Ras activation by using Raf-RBD conjugated agarose to pull-down Ras-GTP. The total Ras in cell lysate was also detected. […] Cells were lysed and protein expression was determined by western blot analysis. […]
Cells were lysed in PBS containing proteinase inhibitor and phosphatase inhibitors and sonication. Protein concentration was measured using the Bio-Rad protein assay kit (Bio-Rad Laboratories, Hercules, Calif., USA). […] The band intensities were analyzed and quantified by the Multi Gauge software (Fuji Photo Film).

The subject of experiment [4] is CDK1. Nature of the experiment: Western blot of CDK1 activation. As to conditions: 3 μM YC-1. The method, then:
(§1) (A) MDA-MB-468 cells were incubated with 3 μM YC-1 for indicated time. Cells were harvested for the detection of phospho-Akt (Ser473), Akt, and PCNA. (B) Cells were pretreated with LY294002 (LY, 10 μM) for 1 h followed by 3 μM YC-1 induction for 6 h. (C) MDA-MB-468 cells were incubated with 3 μM YC-1 for indicated time. Cells were harvested for the detection of phospho-CDK1 (Thr161), CDK1, phospho-EZH2 ([…]), EZH2, and β-actin expression with western blot analysis. Levels of EZH2 phosphorylation were calculated by phospho-EZH2 normalized by total EZH2. (D) Cells were treated with YC-1 for 6 h in the absence or presence of roscovitine (Rosc, 20 μM). Cells were harvested and analyzed by western blotting for protein expression. (E) CDK1 knockdown of MDA-MB-468 cells were induced with 3 μM YC-1 for 4 h and followed by western blot analysis.
(§2) Cells were lysed in PBS containing proteinase inhibitor and phosphatase inhibitors and sonication. Protein concentration was measured using the Bio-Rad protein assay kit (Bio-Rad Laboratories, Hercules, Calif., USA). Lysate protein was separated by electrophoresis of SDS-PAGE and transferred to Immobilon P membrane (EMD Millipore). […] The band intensities were analyzed and quantified by the Multi Gauge software (Fuji Photo Film).

The subject of experiment [5] is Akt. Nature of the experiment: Western blot of Akt activation. Particulars: 3 μM YC-1. The method, then:
as §1, §2

Experiment [6] concerns EZH2. Nature of the experiment: Western blot of EZH2 protein expression in MDA-MB-468 cells. The method, then:
Cells were harvested and performed with western blotting analysis. […] The levels of protein expression were quantitated and shown under blots. (C) Cells were transfected with EZH2 shRNA for 0, 1, 2, 3, and 4 days and collected for determination of cell viability (left) and protein expression (right). (D)(E) After 4 days of EZH2 knockdown, cells were incubated with 3 μM YC-1 for 4 h and detected cell viability (D) and protein contents (E). (F) Tumor specimens were isolated and protein was extracted for western blot analysis.
Cells were lysed in PBS containing proteinase inhibitor and phosphatase inhibitors and sonication. Protein concentration was measured using the Bio-Rad protein assay kit (Bio-Rad Laboratories, Hercules, Calif., USA). Lysate protein was separated by electrophoresis of SDS-PAGE and transferred to Immobilon P membrane (EMD Millipore). The membranes were incubated with appropriate primary antibodies and horseradish peroxidase-conjugated secondary antibodies (EMD Millipore). The signaling was visualized using Chemiluminescence substrate kit (EMD Millipore) and collected by the Luminesence image analyzer, LAS4000 (Fuji Photo Film Co., Tokyo, Japan). The band intensities were analyzed and quantified by the Multi Gauge software (Fuji Photo Film).

For the compound `OCc1ccc(-c2nn(Cc3ccccc3)c3ccccc23)o1` [YC-1, 3-(5′-hydroxymethyl-2′-furyl)-1-benzyl indazole], the “morphological changes (apoptosis)” value in experiment [1] is “obviously morphological changes with apoptotic characteristics”. Further, in experiment [2], the “phosphorylated activation of ERK” value is listed as “rapid phosphorylated activation”. Besides, the “phosphorylated activation of Src, Raf-1, and MEK” value in experiment [3] is reported as “time-dependent phosphorylated activation”. In experiment [4], the CDK1 activation result is listed as “could induce the activation”. Besides, in experiment [5], the Akt activation entry was “activated”. Besides, the “inhibition of EZH2 protein” value in experiment [6] (3 μM YC-1, 2 h) is on record as “about 18%”. Further, in experiment [6] (24 h-incubation, MDA-MB-468, read-out: IC50, inhibition of EZH2 expression), the IC50 was found to be 540 ± 40 nM.

As usually defined, the IC50 is the midpoint of a concentration-inhibition curve.
